Results reported in patent US20070185095A1, “Fused heterocyclic compounds and their use as metabotropic glutamate receptor antagonists” (AstraZeneca AB, priority 2004, published 2007).

Target: T1, human mGluR5d (Homo sapiens, UniProt P41594)
T1 construct: expressed in transfected cells
Experiment: FLIPR assay of [Ca2+]i mobilization in cells expressing human mGluR5d (Group I receptor antagonist activity)
Format: cell-based
Details: antagonist block of agonist challenge
Description: The pharmacological properties of the compounds of the invention can be analyzed using standard assays for functional activity. Examples of glutamate receptor assays are well known in the art as described in for example Aramori et al., Neuron 8:757 (1992), Tanabe et al., Neuron 8:169 (1992), Miller et al., J. Neuroscience 15: 6103 (1995), Balazs, et al., J. Neurochemistry 69:151 (1997). The methodology described in these publications is incorporated herein by reference. Conveniently, the compounds of the invention can be studied by means of an assay that measures the mobilization of intracellular calcium, [Ca^2+]i in cells expressing mGluR5. […]
FLIPR experiments were done using a laser setting of 0.800 W and a 0.4 second CCD camera shutter speed. […] After each addition of the compound, the fluorescence signal was sampled 50 times at 1 second intervals followed by 3 samples at 5 second intervals. Responses were measured as the peak height of the response within the sample period. […]
For FLIPR analysis, cells expressing human mGluR5d as described in WO97/05252 were seeded on collagen coated clear bottom 96-well plates with black sides and analysis of [Ca^2+]i mobilization was performed 24 h following seeding. […] After each addition the fluorescence signal was sampled 50 times at 1 second intervals followed by 3 samples at 5 second intervals. […]

T1 sequence (P41594 21-942 isoform P41594-3 limits assumed): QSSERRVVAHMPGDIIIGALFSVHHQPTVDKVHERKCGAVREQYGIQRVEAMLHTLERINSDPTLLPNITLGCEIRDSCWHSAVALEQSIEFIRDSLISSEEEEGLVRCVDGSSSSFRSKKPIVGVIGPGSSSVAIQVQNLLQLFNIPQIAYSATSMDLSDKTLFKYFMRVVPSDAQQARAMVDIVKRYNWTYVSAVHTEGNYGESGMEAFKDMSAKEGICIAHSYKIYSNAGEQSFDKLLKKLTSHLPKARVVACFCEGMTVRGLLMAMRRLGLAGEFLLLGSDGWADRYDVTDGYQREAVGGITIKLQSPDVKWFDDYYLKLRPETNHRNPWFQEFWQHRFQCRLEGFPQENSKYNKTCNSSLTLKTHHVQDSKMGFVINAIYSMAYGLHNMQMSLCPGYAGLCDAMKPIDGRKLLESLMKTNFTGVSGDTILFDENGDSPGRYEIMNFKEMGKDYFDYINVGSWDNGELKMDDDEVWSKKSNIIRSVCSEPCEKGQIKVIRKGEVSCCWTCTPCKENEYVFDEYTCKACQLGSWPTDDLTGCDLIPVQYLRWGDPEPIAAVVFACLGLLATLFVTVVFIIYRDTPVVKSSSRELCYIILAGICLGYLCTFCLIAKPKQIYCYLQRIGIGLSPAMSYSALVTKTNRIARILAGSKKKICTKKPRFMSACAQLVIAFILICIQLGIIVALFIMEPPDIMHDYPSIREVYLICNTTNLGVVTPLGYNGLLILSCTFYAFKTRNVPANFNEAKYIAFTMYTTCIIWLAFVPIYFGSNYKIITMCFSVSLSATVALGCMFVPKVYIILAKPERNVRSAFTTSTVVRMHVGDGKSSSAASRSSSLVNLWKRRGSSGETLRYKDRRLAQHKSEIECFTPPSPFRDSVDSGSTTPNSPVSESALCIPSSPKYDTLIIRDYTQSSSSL

## Clc1cccc(-c2nc(CC3CCn4c(-c5ccncc5)nnc43)no2)c1 (centres unmarked) [7-{[5-(3-chlorophenyl)-1,2,4-oxadiazol-3-yl]methyl}-3-pyridin-4-yl-6,7-dihydro-5H-pyrrolo[2,1-c][1,2,4]triazole]
  IC50: 49 nM

## CC(c1noc(-c2cccc(Cl)c2)n1)N1CCCCn2c(-c3ccncc3)nnc21 (centres unmarked) [9-{1-[5-(3-chlorophenyl)-1,2,4-oxadiazol-3-yl]ethyl}-3-pyridin-4-yl-6,7,8,9-tetrahydro-5H-[1,2,4]triazolo[4,3-a][1,3]diazepine]
  IC50: 81 nM
